Experimental data taken from paper PMC6934184, “Selective DNA-PKcs inhibition extends the therapeutic index of localized radiotherapy and chemotherapy” (The Journal of Clinical Investigation, 2019).

Molecular target: T1, KIT D816H (Homo sapiens, UniProt P10721, D816H)
T1 construct: purchased Thermo Fisher Scientific (Life Technologies) SelectScreen
Assay: SelectScreen LanthaScreen
Format: binding
Conditions: read-out: % displacement
In short: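 SelectScreen broad panel; activity (Z'LYTE, Adapta) plus binding formats. ATP: Km app for CSF1R Z'LYTE; 10 for CAMK1 Adapta. Readout = % per kinase.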

T1 sequence (P10721 26-976 D816H): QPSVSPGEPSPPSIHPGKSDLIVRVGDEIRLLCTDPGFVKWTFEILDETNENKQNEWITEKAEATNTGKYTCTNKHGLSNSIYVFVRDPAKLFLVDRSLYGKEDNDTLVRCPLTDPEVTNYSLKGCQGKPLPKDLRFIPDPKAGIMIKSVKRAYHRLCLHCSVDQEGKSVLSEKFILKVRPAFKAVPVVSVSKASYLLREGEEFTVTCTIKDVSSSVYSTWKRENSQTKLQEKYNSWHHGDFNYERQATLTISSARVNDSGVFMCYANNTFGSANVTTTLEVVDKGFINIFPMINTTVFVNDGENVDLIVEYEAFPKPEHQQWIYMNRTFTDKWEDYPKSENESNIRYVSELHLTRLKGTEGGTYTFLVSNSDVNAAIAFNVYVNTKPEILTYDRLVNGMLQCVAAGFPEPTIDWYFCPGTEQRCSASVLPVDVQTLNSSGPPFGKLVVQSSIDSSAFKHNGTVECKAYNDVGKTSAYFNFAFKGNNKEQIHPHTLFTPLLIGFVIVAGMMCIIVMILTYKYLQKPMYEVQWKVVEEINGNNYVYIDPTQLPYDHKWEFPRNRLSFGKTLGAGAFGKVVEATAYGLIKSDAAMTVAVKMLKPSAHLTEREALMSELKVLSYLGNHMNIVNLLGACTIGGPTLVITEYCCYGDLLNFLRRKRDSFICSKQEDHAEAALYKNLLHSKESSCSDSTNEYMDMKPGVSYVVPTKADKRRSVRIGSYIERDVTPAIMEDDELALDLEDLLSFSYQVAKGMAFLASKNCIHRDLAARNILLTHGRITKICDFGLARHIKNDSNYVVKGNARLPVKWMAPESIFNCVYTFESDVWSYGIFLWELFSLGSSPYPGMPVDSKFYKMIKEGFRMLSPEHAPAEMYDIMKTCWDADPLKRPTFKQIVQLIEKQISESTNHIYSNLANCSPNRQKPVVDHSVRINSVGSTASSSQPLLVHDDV

CN(C(=O)CN1CCOCC1)c1ccc2sc3c(-c4cccc5c(=O)cc(N6CC7CCC(C6)O7)oc45)cccc3c2c1 [NU5455]
inhibition at 1 µM: -0.2%
